Series [1] is described as follows: Cell-Titer Glo cytotoxicity assay. Conditions: African green monkey, Vero-E6 cells; for CC50 at 48 h: mean ± SD, triplicate; for viability at 48 h, 20 µM: at 20 µM. It is filed as cell-based. As for the experimental part: (§1) To estimate the cytotoxicity of test compounds on VERO-E6 cells, Cell-Titer Glo® luminescent cell viability assay (Promega) was performed according to the manufacturer’s instruction. […] The half of the cytotoxic concentration (CC50) values were calculated from the percentages of cells whose viability was inhibited by test compounds at various concentrations.

The test system of the next series is Vero-E6 cells. As to the kind of experiment: Cell-Titer Glo cytotoxicity assay. It is filed as cell-based. Conditions: 48 h, mean ± SD, triplicate. The protocol:
as §1

A further series addresses SARS-CoV-2 3CL^pro (Severe acute respiratory syndrome coronavirus 2, UniProt P0DTD1). As to the kind of experiment: SARS-CoV-2 3CLpro FRET enzymatic inhibition assay. Format: biochemical. Particulars: for IC50: 250 nM 3CLpro, 4 mM DTT, 30 min pre-incubation, 50 µM substrate, mean ± SD, triplicate, read-out: IC50 against 3CL^pro enzymatic activity; for IC50 shift upon addition of reducing reagent: 3CLpro assay in absence or presence of 4 mM DTT; for sensitivity of 3CLpro compared to PLpro: ratio of IC50 values, PLpro vs 3CLpro. As for the experimental part:
The SARS-CoV-2 3CL^pro was prokaryotic expressed and purified as previously described with slight modification. For enzymatic inhibition assay, the recombinant 3CL^pro (250 nM at a final concentration) was incubated with increasing concentrations of each compound in 90 µL reaction buffer (50 mM Tris–HCl, pH 7.3, 1 mM EDTA, 4mM DTT) for 30 min [6]. The reaction was initiated by adding 10 µL FRET-based peptidic substrate (Dabcyl-KTSAVLQ/SGFRKME-Edans) with a final concentration of 50 µM. The fluorescence signal was immediately measured every 20 s for 30 min using a Bio-Tek Synergy4 plate reader with filters for excitation at 336/20 nm and emission at 490/20 nm. The V0 of reactions were calculated to indicate the enzymatic activities. Three independent experiments were performed and IC50 curves were analyzed using four-parameter logistic regression in GraphPad Prism software.
For mechanism of action study, various concentrations of ginkgolic acid were mixed and incubated with increasing concentrations of 3CL^pro (100–1000 nM) in 90 µL reaction buffer for 30 min. Reactions were initiated by adding 10 µL substrate with a final concentration of 50 µM. At each concentration of ginkgolic acid, the V0s were plotted with the concentrations of 3CL^pro, and the data was fitted using linear regression analysis in GraphPad Prism software.

The target of a further series is SARS-CoV-2 PL^pro (Severe acute respiratory syndrome coronavirus 2, UniProt P0DTD1). Kind of series: SARS-CoV-2 PLpro fluorescence-based enzymatic inhibition assay (Z-RLRGG-AMC substrate). Format: biochemical. Particulars: for IC50: mean ± SD, triplicate, read-out: IC50 against PL^pro enzymatic activity; for inhibition at 20 µM: read-out: inhibition against PL^pro in high-throughput screen.

The mark [2] stands for this setting: 100 nM PLpro, 4 mM DTT, 30 min pre-incubation, 30 µM substrate.
The mark [3] stands for this setting: compounds at 20 µM, 100 nM PLpro, 30 min pre-incubation, 4 mM DTT, 30 µM substrate, RFU at 10 min.

On to `CCCCCC/C=C\CCCCCCCc1cccc(O)c1C(=O)O` [ginkgolic acid], for which, in series [1], half-maximal cytotoxicity (CC50 at 48 h) was put at 27.9 ± 0.77 µM and the viability – broadly, the share of living cells, or the viability signal relative to a control – at 48 h, 20 µM was greater than 90%. The CC10 in the series on Vero-E6 cells was found to be 21.38 ± 0.52 µM. For the same compound, at SARS-CoV-2 3CL^pro, the IC50 – broadly, the point on the concentration scale where inhibition reaches its midpoint – amounted to 1.79 ± 0.58 µM; the “IC50 shift upon addition of reducing reagent” value was “no significant IC50 shift”; the “sensitivity of 3CLpro compared to PLpro” value is given as “about 10 times”. In addition, the “type of enzymatic inhibition of 3CL^pro” value on SARS-CoV-2 3CL^pro (V0 vs enzyme concentration (100–1000 nM) at different inhibitor concentrations) is listed as “irreversible inhibitor”. Also, the IC50 on SARS-CoV-2 PL^pro (setting [2]) was 16.3 ± 0.64 µM. Further, the “type of enzymatic inhibition of PL^pro” value at SARS-CoV-2 PL^pro (V0 vs enzyme concentration (25–150 nM) at different inhibitor concentrations) is listed as “irreversible inhibitor”. In addition, the inhibition (usually how much of the control response was suppressed) at 20 µM on SARS-CoV-2 PL^pro (setting [3]) was greater than 50%.
`CCCCCCCCCCCCCCCc1cccc(O)c1C(=O)O` [anacardic acid]: in series [1], the CC50 (in general, the concentration that lowers cell viability or growth by half) at 48 h is 25.5 ± 0.69 µM and the viability at 48 h, 20 µM was greater than 90%. Moreover, in the series with Vero-E6 cells, the CC10 is reported as 22.27 ± 0.26 µM. For the same compound, on SARS-CoV-2 3CL^pro, the concentration for half-maximal inhibition (IC50) was determined as 2.07 ± 0.35 µM, the “IC50 shift upon addition of reducing reagent” value is on record as “no significant IC50 shift” and the “sensitivity of 3CLpro compared to PLpro” value is recorded as “about 10 times”. The IC50 on SARS-CoV-2 PL^pro (setting [2]) is 17.1 ± 1.3 µM. In addition, the inhibition at 20 µM on SARS-CoV-2 PL^pro (setting [3]) is greater than 50%.
Regarding `C/C1=C2/[N-][C@H]([C@H](CC(N)=O)[C@@]2(C)CCC(=O)NC[C@@H](C)OP(=O)([O-])O[C@H]2[C@@H](O)[C@@H](n3cnc4cc(C)c(C)cc43)O[C@@H]2CO)[C@]2(C)N=C(/C(C)=C3N=C(/C=C4N=C1[C@@H](CCC(N)=O)C\4(C)C)[C@@H](CCC(N)=O)[C@]\3(C)CC(N)=O)[C@@H](CCC(N)=O)[C@]2(C)CC(N)=O.[CH3-].[Co+3]` [methylcobalamin, reference compound], on SARS-CoV-2 PL^pro (setting [3]), the “inhibition against PL^pro in high-throughput screen” value is “more than 50%”.

(Values after paper PMC7914117, “Ginkgolic acid and anacardic acid are specific covalent inhibitors of SARS-CoV-2 cysteine proteases” (Cell & Bioscience, 2021).)
